Measurements: patent publication US20080249066A1, “ANTIVIRAL COMPOUNDS AND COMPOSITIONS” (ARDEA BIOSCIENCES, INC., priority 2007, published 2008)
Counter-ions that a name gives are not always drawn. Like-named read-outs stand apart in the source and are kept apart here.

Experiments:
Type in all cases: cell-based
[1] = tested on: Diff.CD34+; experiment: Inhibition of cell growth (GI50) in Diff.CD34+ cells, 7-d
[2] = tested on: HIV-1 virus strain JR-FL; experiment: Inhibition of infection of primary HIV-1 isolate JR-FL in PBMCs (p24 antigen ELISA); conditions: Human immunodeficiency virus 1, 192 h; PBMC infected with virus JR-FL, p24 production at day 8
Excerpt: (§1) Monocyte/macrophages represent a major reservoir of HIV-1 in the infected human host. See L. Epstein et al., AIDS Res. 14, 447 (1984). However, these cells tend to be resistant to dideoxynucleoside prodrugs due to low levels of kinases needed to activate the prodrugs. See C. Pemo et al., J. Exp. Med. 168, 1111 (1984). To test the compounds described herein in these cells, PBMC cells infected for 7 days with two different virus strains (20678 and JR-FL) and under PHA stimulation for 4 days were treated with AZT, FOZ ISO 850, FOZ ISO 851, and FOZ MIX Na.
(§2) PBMC's were prepared as follows: 50 ml of whole human blood was centrifuged at 1000 g for 15 min, supernatant (plasma) removed, and cells resuspended in 80 ml PBS. 20 ml resuspended blood was then layered onto 25 ml Ficoll-Paque Plus (GE Healthcare, Uppsala Sweden), and centrifuged at 400 g for 30 min. The PBMC layer at the interface was collected, washed two times with 20 ml PBS, and resuspended in 20 ml RPMI/10% FBS.
(§3) Day 5-Stimulation of PBMC: PBMCs were grown in 50 ml of stimulation medium (RPMI, 15% FBS, 5 units/ml of IL-2, and 6 ug/ml of PHA) for 5 days.
(§4) Day 1-Infection of PBMC: PBMCs were counted with a hemacytometer. Stimulation medium was removed by centrifugation at RT, 1,500 rpm/5′ and cells resuspended in growth medium (RPMI, 15% of FBS, 10 units/ml of IL-2). PBMCs were infected with JR-FL or 20678 as follows: for one 96-well plate, 20 millions cells were infected with 1 ml of each virus (use 10 ul of virus and 200,000 cell per well) in a 4.5 ml-volume in a 50-ml conical tube. Cells were incubated for 3 hrs at 37 °C. with frequent shaking. Aliqouts of 50 ul of a 4× solution of the compounds to be tested were added to the 96-well plates. After 3 hr of incubation, infected cells were washed two times with PBS and one time with culture medium by spinning down the cells at 1500 rpm for 5 minutes at room temperature. After the last wash cells were resuspended in 15 ml of growth medium. 150 ul of cell suspension were delivered into each well. Cells were incubated for 7 days at 37 °C.
(§5) Day 5-Medium change: Cells were resuspended by pipetting and 100 ul of medium was removed. 100 ul of fresh medium was added with 1× compound. Cells were incubated for 3 more days at 37° C.
(§6) Day 8-p24 assay: At day 8 the p24 production was measured using the HIV-1 p24 Antigen ELISA (Zeptometrix) according to manufacturer instructions.

[3] = tested on: HIV-1 virus strain 20678; experiment: Inhibition of infection of primary HIV-1 isolate 20678 in PBMCs (p24 antigen ELISA); conditions: for Selectivity Index: GI50 (Diff.CD34+) divided by EC50 (PBMC), values fit AVG GI50 / EC50 of virus 20678; for EC50: Human immunodeficiency virus 1, 192 h, PBMC infected with virus 20678, p24 production at day 8
Excerpt: as §1, §2, §3, §4, §5, §6

[4] = Inhibition of cell growth (GI50) in Diff.CD34+ cells, 7-d; conditions: Diff.CD34+ cells
[5] = 7-d, experiment of Aug. 6, 2007, concentration required for 50% inhibition of cell growth, read-out: GI50 (μM) Aug. 6, 2007 7-d
[6] = 7-d, experiment of Aug. 13 2007, concentration required for 50% inhibition of cell growth, read-out: GI50 (μM Aug. 13 2007 7-d)
[7] = average of the two 7-d experiments, read-out: AVG GI50

SMILES	GI50 [1, 5] [µM]	GI50 [1, 6] [µM]	GI50 [1, 7] [µM]	EC50 [2] [nM]	Selectivity Index [3]	EC50 [3] [nM]	GI50 at 7 d [4, 5] [µM]	GI50 at 7 d [4, 7] [µM]	GI50 at 7 d [4, 6] [µM]
CCCCCCCCCCCCSCC(COP(=O)(O)OC[C@H]1O[C@@H](n2cc(C)c(=O)[nH]c2=O)C[C@@H]1N=[N+]=[N-])OCCCCCCCCCC (stereo partly drawn) [FOZ ISO 850, Phosphoric Acid (2S,3S,5R)-3-azido-5-(5-methyl-2,4-dioxo-3,4-dihydro-2H-pyrimidin-1-yl)-tetrahydro-furan-2-ylmethyl ester 2-decyloxy-3-dodecylsulfanyl-propyl ester]	2.2	4	3.09	474	11.06	279	–	–	–
CCCCCCCCCCCCSC[C@@H](COP(=O)(O)OC[C@H]1O[C@@H](n2cc(C)c(=O)[nH]c2=O)C[C@@H]1N=[N+]=[N-])OCCCCCCCCCC [FOZ ISO 851, Phosphoric Acid (2S,3S,5R)-3-azido-5-(5-methyl-2,4-dioxo-3,4-dihydro-2H-pyrimidin-1-yl)-tetrahydro-furan-2-ylmethyl ester (R)-2-decyloxy-3-dodecylsulfanyl-propyl ester]	0.85	1.2	1.03	504	3.5	294	–	–	–
CCCCCCCCCCCCSCC(COP(=O)(O)OC[C@H]1O[C@@H](n2cc(C)c(=O)[nH]c2=O)C[C@@H]1N=[N+]=[N-])OCCCCCCCCCC (stereo partly drawn) [FOZ ISO 850 Na, Phosphoric Acid (2S,3S,5R)-3-azido-5-(5-methyl-2,4-dioxo-3,4-dihydro-2H-pyrimidin-1-yl)-tetrahydro-furan-2-ylmethyl ester 2-decyloxy-3-dodecylsulfanyl-propyl ester]	–	> 10	–	–	14.3	–	4	4	–
Cc1cn([C@H]2C[C@H](N=[N+]=[N-])[C@@H](CO)O2)c(=O)[nH]c1=O [AZT, 3′-azido-3′-deoxythymidine, reference compound]	–	–	–	89.8	1.8	76	0.07	0.14	0.2
CCCCCCCCCCCCSC[C@H](COP(=O)(O)OC[C@H]1O[C@@H](n2cc(C)c(=O)[nH]c2=O)C[C@@H]1N=[N+]=[N-])OCCCCCCCCCC (mixture of isomers) [FOZ MIX Na, Phosphoric acid (2S,3S,5R)-3-azido-5-(5-methyl-2,4-dioxo-3,4-dihydro-2H-pyrimidin-1-yl)-tetrahydro-furan-2-ylmethyl ester (S)-2-decyloxy-3-dodecylsulfanyl-propyl ester sodium salt]	–	–	–	1140	–	1410	1.5	1.83	2.2
CCCCCCCCCCCCSC[C@@H](COP(=O)(O)OC[C@H]1O[C@@H](n2cc(C)c(=O)[nH]c2=O)C[C@@H]1N=[N+]=[N-])OCCCCCCCCCC [FOZ ISO 851 Na, Phosphoric Acid (2S,3S,5R)-3-azido-5-(5-methyl-2,4-dioxo-3,4-dihydro-2H-pyrimidin-1-yl)-tetrahydro-furan-2-ylmethyl ester (R)-2-decyloxy-3-dodecylsulfanyl-propyl ester]	2.2	> 10	2.2	–	4.5	–	–	–	–
